For 1 compound, Activity, IC50 and inhibition results are on record in ChEMBL document CHEMBL5532656, “Novel ligustilide derivatives target quorum sensing system LasR/LasB and relieve inflammatory response against Pseudomonas aeruginosa infection” (Eur J Med Chem, 2024).

Active and inactive are the calls of the source. The rule behind the calls is not given here.

Data set [1] can be described thus: Toxicity in Zebra fish AB embryo assessed as viability of zebrafish larvae at <50 uM measured upto 120 hrs post fertilization by stereomicroscopic analysis. The arrangement: species or system Danio rerio.
Data set [2] has as its system RAW264.7. The data set can be described thus: Antiinflammatory activity in LPS-induced mouse RAW264.7 cells assessed as inhibition of NF-kappaB p65 expression pretreated for 3 hrs followed by LPS stimulation and measured after 24 hrs by Western blot analysis. Format: functional, cell-based. The conditions noted are these: dose 1.25-10 µmol/L, time 27.0 hrs. A general note: A western blot detects proteins with antibodies after separation by electrophoresis.

For data set [3], the system named is Mus musculus. The data set can be described thus: Anti-inflammatory activity against LPS-induced acute lung injury mouse model assessed as downregulation of TNF-alpha level administered as po dose preincubated for 4 hrs followed by LPS stimulation and measured after 6 hrs by ELISA method. Format: functional, organism-based. The conditions noted are these: dose 1-2 mg/kg, time 10.0 hrs.

The test system of data set [4] is Mus musculus. The data set can be described thus: Protection against LPS-induced acute lung injury mouse model assessed as inhibition of edema at 1 to 2 mg/kg, po preincubated for 4 hrs followed by LPS stimulation and measured after 6 hrs by H and E staining based analysis. Format: functional, organism-based. The conditions noted are these: dose 1-2 mg/kg, time 10.0 hrs.

Data set [5] is described as follows: Toxicity in BALB/c mouse assessed as adverse effect at 2 to 4 mg/kg, IG. Particulars: in vivo, po, dose 2-4 mg/kg. Format: organism-based.
Data set [6] in a line: Inhibition of quorum sensing system in Pseudomonas aeruginosa PAO1 assessed as reduction in elastase level using BODIPY-FL-labeled DQ elastin conjugate as substrate measured after 24 hrs by fluorometric method.
In data set [7] the test system is Mus musculus. The data set is described as follows: Protection against LPS-induced acute lung injury mouse model assessed as inhibition of alveolar wall thickening at 1 to 2 mg/kg, po preincubated for 4 hrs followed by LPS stimulation and measured after 6 hrs by H and E staining based analysis. Type of data set: functional, organism-based. The conditions noted are these: dose 1-2 mg/kg, time 10.0 hrs.

The subject of data set [8] is RAW264.7. The data set is described as follows: Antiinflammatory activity in mouse RAW264.7 cells assessed as reduction in IL-1 beta mRNA expression at 2.5 to 10 uM by RT-PCR analysis. Type of data set: functional, cell-based. Particulars: dose 2.5-10 µM.
For data set [9], the system named is RAW264.7. The data set is described as follows: Antiinflammatory activity in LPS-induced mouse RAW264.7 cells assessed as decrease in iNOS expression level pretreated for 3 hrs followed by LPS stimulation and measured after 24 hrs by Western blot analysis. Format: functional, cell-based. Particulars: dose 1.25-10 µmol/L, time 27.0 hrs.
The nature of data set [10]: Cytotoxicity against African green monkey Vero cells assessed as reduction in cell viability at 50 uM measured after 24 hrs by MTT assay. Type of data set: toxicity, cell-based. The conditions noted are these: chlorocebus sabaeus. In general terms: Tetrazolium dyes change colour on reduction, which living cells bring about.
In data set [11] the test system is Mus musculus. The data set can be described thus: Anti-inflammatory activity against LPS-induced acute lung injury mouse model assessed as reduction in IL-6 mRNA expression at 1 to 2 mg/kg, po preincubated for 4 hrs followed by LPS stimulation and measured after 6 hrs. Format: functional, organism-based. The conditions noted are these: dose 1-2 mg/kg, time 10.0 hrs.

Data set [12] is described as follows: Toxicity in BALB/c mouse assessed as effect on lung at 2 to 4 mg/kg, PO measured after 7 days by H and E staining based analysis. Type of data set: organism-based. Particulars: in vivo, 168 h, dose 2-4 mg/kg, time 7 day.
Data set [13] deals with RAW264.7. The data set can be described thus: Antiinflammatory activity in mouse RAW264.7 cells assessed as reduction in iNOS mRNA expression at 2.5 to 10 uM by RT-PCR analysis. Format: functional, cell-based. The conditions noted are these: dose 2.5-10 µM.
For data set [14], the system named is Mus musculus. The data set is described as follows: Anti-inflammatory activity against LPS-induced acute lung injury mouse model assessed as reduction in TNF-alpha mRNA expression at 1 to 2 mg/kg, po preincubated for 4 hrs followed by LPS stimulation and measured after 6 hrs. Format: functional, organism-based. Particulars: dose 1-2 mg/kg, time 10.0 hrs.

Turning to `CCCCC1(O)C2=C(C=CCC2)C(=O)N1Cc1ccc(C(F)(F)F)cc1` (stereo not given), the Activity entry is “Non-Toxic” in data set [1]; “Dose-Dependent Effect” in the data set with RAW264.7 [2]; “Dose-Dependent Effect” with Mus musculus [3]; “Non-Toxic” in data set [5]; “Dose-Dependent Effect” in the data set with RAW264.7 [9]; “Toxic” in data set [10]. Also, the Activity entry in data set [12] is “Non-Toxic”. Further, the result with Mus musculus [4], in the data set with Mus musculus [7], in the data set on RAW264.7 [8], in the data set on Mus musculus [11], with RAW264.7 [13] and with Mus musculus [14] was Active. The half-inhibitory concentration (IC50) (commonly the midpoint of a concentration-inhibition curve) in data set [6] amounted to 7.3 µM. For the same compound, the inhibition entry in [6] (dose 0.625-10 µM) was “Dose-Dependent Effect”.
